Test results taken from patent publication US12595248B2, “PRMT5 inhibitors” (Merck Sharp & Dohme LLC, priority 2019, dated 2026).

Experiments:
[1] = molecular target: T1, PRMT5-MEP50 enzyme complex (Homo sapiens, UniProt O14744); experiment: PRMT5-MEP50 Enzyme Methylation Assay (Version A); type: biochemical
T1 construct: Full-length (FL)-PRMT5-MEP50 enzyme complex (recombinant proteins from baculovirus-transfected Sf21 cells: FL-PRMT5; MW=73837 kDa and FL-MEP50; MW=38614); made in house; host or cells: baculovirus-transfected Sf21 cells
T1 sequence (O14744 whole entry): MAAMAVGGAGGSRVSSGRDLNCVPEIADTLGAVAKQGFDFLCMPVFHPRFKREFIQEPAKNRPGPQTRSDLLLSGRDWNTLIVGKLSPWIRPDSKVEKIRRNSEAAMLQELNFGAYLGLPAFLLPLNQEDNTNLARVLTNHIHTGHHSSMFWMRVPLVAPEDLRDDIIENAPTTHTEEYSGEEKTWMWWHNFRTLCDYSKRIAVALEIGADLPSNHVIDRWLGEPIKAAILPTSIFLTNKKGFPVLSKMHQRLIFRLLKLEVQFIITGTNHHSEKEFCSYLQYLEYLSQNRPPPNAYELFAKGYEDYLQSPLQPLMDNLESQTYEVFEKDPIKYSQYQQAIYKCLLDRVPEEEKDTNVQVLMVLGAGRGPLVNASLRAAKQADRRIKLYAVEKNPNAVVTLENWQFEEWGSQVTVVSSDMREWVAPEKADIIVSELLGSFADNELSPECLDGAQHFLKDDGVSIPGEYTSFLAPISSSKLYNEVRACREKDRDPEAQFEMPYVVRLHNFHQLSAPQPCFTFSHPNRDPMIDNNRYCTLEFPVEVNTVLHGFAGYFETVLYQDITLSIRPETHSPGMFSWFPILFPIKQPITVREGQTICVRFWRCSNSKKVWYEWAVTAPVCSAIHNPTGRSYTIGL
T1 sequence (Q9BQA1 whole entry partner): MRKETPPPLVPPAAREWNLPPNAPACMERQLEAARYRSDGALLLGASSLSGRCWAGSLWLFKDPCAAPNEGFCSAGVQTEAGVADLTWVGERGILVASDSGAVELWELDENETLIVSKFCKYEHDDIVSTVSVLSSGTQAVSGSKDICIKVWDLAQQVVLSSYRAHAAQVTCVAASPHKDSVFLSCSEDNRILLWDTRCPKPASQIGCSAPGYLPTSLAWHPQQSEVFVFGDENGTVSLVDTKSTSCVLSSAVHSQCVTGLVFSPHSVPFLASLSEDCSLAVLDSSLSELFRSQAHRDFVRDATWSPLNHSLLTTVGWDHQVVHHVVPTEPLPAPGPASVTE
Procedure: PRMT5-MEP50 Enzyme Methylation Assay (Version A)
PRMT5-MEP50 biochemical assay is a direct measurement of the methylation activity of the enzyme complex on a short peptide substrate derived from the N-terminus of H4 histone. Methylation experiment was performed with recombinant PRMT5-MEP50 protein complex. The assessment of inhibitory effect of small molecules was measured by the effectiveness of the compounds to inhibit this reaction (EC50).
In this assay, the potency (EC50) of each compound was determined from a twenty-point (1:2 serial dilution; top compound concentration of 100000 nM) titration curve using the following outlined procedure. To each well of a white ProxiPlus 384 well-plate, 100 nL of compound (1% DMSO in final assay volume of 10 μL) was dispensed, followed by the addition of 8 μL of 1× assay buffer (50 mM Bicine pH 8.0, 1 mM DTT, 0.004% Tween20, 0.01% BSA) containing 1.25 nM of Full-length (FL)-PRMT5-MEP50 enzyme complex (recombinant proteins from baculovirus-transfected Sf21 cells: FL-PRMT5; MW=[…] and FL-MEP50; MW=38614) and 1 μL of 150 μM S-(5′-Adenosyl)-L-Methionine Chloride (SAM). A plate was sealed and placed in a 37° C. humidified chamber for a 60 minutes pre-incubation with compound. Subsequently, each reaction was initiated by the addition of 1 μL 1× assay buffer containing 750 nM biotinylated H4R3 (MeI) peptide. The final reaction in each well of 10 μL consists of 1.0 nM PRMT5-MEP50, 75 nM biotinylated-peptide, and 15 μM SAM. Methylation reactions were allowed to proceed for 150 minutes in a sealed plate at 37° C. Reactions were immediately quenched by the addition of 1 μL of 5% formic acid. A plate was then frozen and shipped to SAMDI™ Tech Inc. to determine the percent conversion from H4R3 (MeI) to H4R3 (Me2). Dose-response curves were generated by plotting percent effect (% product conversion; Y-axis) vs. Log 10 compound concentrations (X-axis). EC50 values were determined by non-linear regression according to models for either sigmoidal (4 parameters) or biphasic (7 parameters) dose-response curves.

PRMT5 = molecular target: T2, PRMT5 (Homo sapiens, UniProt O14744); experiment: PRMT5 Cell Target Engagement (TE) Assay; type: cell-based; settings: MCF-7 cells, treated for 3 days, symmetric dimethylation of arginine (SDMA) by high content imaging
T2 construct: seeded with 4000 MCF-7 cells in 30 μl media; endogenous in cells; host or cells: MCF-7 cells
T2 sequence (O14744 whole entry): as the sequence (O14744 whole entry) above
T2 sequence (Q9BQA1 whole entry partner): as the sequence (Q9BQA1 whole entry partner) above
Summary of the method: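 MCF-7 cells treated 3 days at 37 °C with a ten-point 1:3 titration from 10000 nM. Fixed cells immunostained with anti-SDMA and Alexa488 secondary; nuclear fluorescence quantified by high-content imaging versus DMSO wells, with IC50 from a 4-parameter fit.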

[2] = molecular target: T1, PRMT5-MEP50 enzyme complex; experiment: PRMT5-MEP50 Enzyme Methylation Assay (Version B); type: biochemical
Summary of the method: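 Recombinant full-length PRMT5-MEP50 (0.5 nM, Sf21-expressed) pre-incubated 30 min at 37 °C with compound (20-point, 1:2, top 100000 nM), then reacted 150 min at 37 °C with 75 nM biotinylated H4R3 peptide and 15 μM SAM in Bicine pH 8.0. Formic acid quench; SAMDI MS conversion to Me2; EC50 by sigmoidal or biphasic fit.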

[3] = only one EC50 shown: 4 parameters single site sigmoidal model, 60 min pre-incubation with SAM, read-out: Enzyme Methylation Assay Version A (EC50)
[4] = first of two EC50s: 7 parameters biphasic model, read-out: Enzyme Methylation Assay Version A (EC50_1)
[5] = second of two EC50s: 7 parameters biphasic model, read-out: Enzyme Methylation Assay Version A (EC50_2)
[6] = first of two EC50s: 7 parameters biphasic model, read-out: Enzyme Methylation Assay Version B (EC50_1)
[7] = second of two EC50s: 7 parameters biphasic model, read-out: Enzyme Methylation Assay Version B (EC50_2)

| EC50 [1, 3] [nM] | EC50 (PRMT5) [nM] | EC50 [1, 4] [nM] | EC50 [1, 5] [nM] | EC50 [2, 6] [nM] | EC50 [2, 7] [nM] | SMILES |
| --- | --- | --- | --- | --- | --- | --- |
| 1.1 | 9.8 |  |  |  |  | O=C(c1cn2cc(Br)ccc2n1)N1CC[C@H](N2CCc3ccccc3C2)[C@@H](O)C1 (single isomer, unassigned) [Example 1] |
|  | > 10000 | 159 | 58900 |  |  | CC(=O)N1CCC(Nc2cc(C(=O)N3CCC(N4CCc5ccccc5C4)C(O)C3(C)C)ccn2)CC1 (single isomer, unassigned) [Example 22, l-(4-((4-(4-(3,4-dihydroisoquinolin-2(1H)-yl)-3-hydroxy-2,2-dimethylpiperidine-1-carbonyl)pyridin-2-yl)amino)piperidin-1-yl)ethan-1-one] |
|  | 4690 | ~36 | 31600 |  |  | CC(=O)N1CCC(Nc2cc(C(=O)N3CCC(N4CCc5ccccc5C4)C(O)C3(C)C)ccn2)CC1 (single isomer, unassigned) [Example 23, l-(4-((4-(4-(3,4-dihydroisoquinolin-2(1H)-yl)-3-hydroxy-2,2-dimethylpiperidine-1-carbonyl)pyridin-2-yl)amino)piperidin-1-yl)ethan-1-one] |
| 0.4 | 2.2 |  |  |  |  | COC(C)c1cc(Br)cn2cc(C(=O)N3CC[C@H](N4CCc5ccccc5C4)[C@@H](O)C3)nc12 (single isomer, unassigned) [Example 68, (6-bromo-8-((R or S)-1-methoxyethyl)imidazo[1,2-a]pyridin-2-yl)((3S,4S)-4-(3,4-dihydroisoquinolin-2(1H)-yl)-3-hydroxypiperidin-1-yl)methanone] |
| 0.7 | 2.5 |  |  |  |  | O=C1Nc2cc(C(=O)N3CC[C@H](N4CCc5ccccc5C4)[C@@H](O)C3)ccc2OC1C1CC1 (single isomer, unassigned) [Example 80] |
|  | 59 | 1.6 | 5010 |  |  | O=C1Nc2cc(C(=O)N3CC[C@H](N4CCc5ccccc5C4)[C@@H](O)C3)ccc2OC1C1CC1 (single isomer, unassigned) [Example 81] |
| 0.9 | 5.6 |  |  |  |  | CC1(C)CC(C2Oc3ccc(C(=O)N4CC[C@H](N5CCc6ccccc6C5)[C@@H](O)C4)cc3NC2=O)CO1 (single isomer, unassigned) [Example 84] |
| 1.3 | 6.4 |  |  |  |  | CC1(C)CC(C2Oc3ccc(C(=O)N4CC[C@H](N5CCc6ccccc6C5)[C@@H](O)C4)cc3NC2=O)CO1 (single isomer, unassigned) [Example 85] |
|  | 50 | 3.1 | 9550 |  |  | CC(=O)N1CCC(Nc2cc(C(=O)N3CC[C@H](N4CCc5ccccc5C4)[C@@H](O)C3)c(F)cn2)C1 (single isomer, unassigned) [Example 113] |
|  | 28 | 3.3 | 3130 |  |  | CC(=O)N1CCC(Nc2cc(C(=O)N3CC[C@H](N4CCc5ccccc5C4)[C@@H](O)C3)c(F)cn2)C1 (single isomer, unassigned) [Example 114] |
| 6.5 | 140 |  |  |  |  | O=C(c1cc(NC2CCN3C(=O)CCC3C2)ncc1F)N1CC[C@H](N2CCc3ccccc3C2)[C@@H](O)C1 (single isomer, unassigned) [Example 115] |
| 3.9 | 6.6 |  |  |  |  | O=C(c1cc(NC2CCN3C(=O)CCC3C2)ncc1F)N1CC[C@H](N2CCc3ccccc3C2)[C@@H](O)C1 (single isomer, unassigned) [Example 116] |
| 1.8 | 3.3 |  |  |  |  | O=C(c1cc(NC2CCN3C(=O)CCC3C2)ncc1F)N1CC[C@H](N2CCc3ccccc3C2)[C@@H](O)C1 (single isomer, unassigned) [Example 117] |
|  | 55 | 2.9 | 10600 |  |  | O=C(c1cc(NC2CCN3C(=O)CCC3C2)ncc1F)N1CC[C@H](N2CCc3ccccc3C2)[C@@H](O)C1 (single isomer, unassigned) [Example 118] |
| 3.5 | 15 |  |  |  |  | CC(=O)N1CC2CC1CC2Nc1cc(C(=O)N2CC[C@H](N3CCc4ccccc4C3)[C@@H](O)C2)c(F)cn1 (single isomer, unassigned) [Example 119] |
|  | 316 | 20 | 5490 |  |  | CC(=O)N1CC2CC1CC2Nc1cc(C(=O)N2CC[C@H](N3CCc4ccccc4C3)[C@@H](O)C2)c(F)cn1 (single isomer, unassigned) [Example 120] |
| 0.4 | 12 |  |  |  |  | CC1(C)CC1(C#N)c1cnc2nc(C(=O)N3CC[C@H](N4CCc5ccccc5C4)[C@@H](O)C3)cn2c1 (single isomer, unassigned) [Example 127] |
| 0.3 | 1.1 |  |  |  |  | CC1(C)CC1(C#N)c1cnc2nc(C(=O)N3CC[C@H](N4CCc5ccccc5C4)[C@@H](O)C3)cn2c1 (single isomer, unassigned) [Example 128] |
| 1.4 | 6.4 |  |  |  |  | CC1CC1c1cnc2nc(C(=O)N3CCC(N4CCc5ccccc5C4)[C@@H](O)C3)cn2c1 (single isomer, unassigned) [Example 129] |
| 0.7 | 3.8 |  |  |  |  | CC1CC1c1cnc2nc(C(=O)N3CCC(N4CCc5ccccc5C4)[C@@H](O)C3)cn2c1 (single isomer, unassigned) [Example 130] |
| 0.5 | 4.6 |  |  |  |  | CC1CC1c1cnc2nc(C(=O)N3CCC(N4CCc5ccccc5C4)[C@@H](O)C3)cn2c1 (single isomer, unassigned) [Example 131] |
|  | 331 |  |  | ~14 | 15100 | CC1(C)CC(=O)Nc2cc(C(=O)N3CC[C@H](N4CCc5ccccc5C4)[C@@H](O)C3)ccc21 [Example 96, 7-((3S,4S)-4-(3,4-dihydroisoquinolin-2(1H)-yl)-3-hydroxypiperidine-1-carbonyl)-4,4-dimethyl-3,4-dihydroquinolin-2(1H)-one] |
|  | 59 |  |  | 5.4 | 2850 | CC1(C)OC(=O)Nc2cc(C(=O)N3CC[C@H](N4CCc5ccccc5C4)[C@@H](O)C3)ccc21 [Example 97, 7-((3S,4S)-4-(3,4-dihydroisoquinolin-2(1H)-yl)-3-hydroxypiperidine-1-carbonyl)-4,4-dimethyl-1,4-dihydro-2H-benzo[d][1,3]oxazin-2-one] |
|  | 5830 |  |  | ~118 | > 100000 | CC1(C)OC(=O)Nc2cc(C(=O)N3CC[C@@H](N4CCc5ccccc5C4)[C@H](O)C3)ccc21 [Example 98, 7-((3R,4R)-4-(3,4-dihydroisoquinolin-2(1H)-yl)-3-hydroxypiperidine-1-carbonyl)-4,4-dimethyl-1,4-dihydro-2H-benzo[d][1,3]oxazin-2-one] |
|  | 15 |  |  | 3.2 | 1040 | CS(=O)(=O)N1CCC(Nc2cc(C(=O)N3CC[C@H](N4CCc5ccccc5C4)[C@@H](O)C3)c(F)cn2)CC1 [Example 105, ((3S,4S)-4-(3,4-dihydroisoquinolin-2(1H)-yl)-3-hydroxypiperidin-1-yl)(5-fluoro-2-((1-(methylsulfonyl)piperidin-4-yl)amino)pyridin-4-yl)methanone] |
|  | 6.2 |  |  | 1.9 | 496 | CCOC(=O)N1CCC(Nc2cc(C(=O)N3CC[C@H](N4CCc5ccccc5C4)[C@@H](O)C3)c(F)cn2)CC1 [Example 106, ethyl 4-((4-((3S,4S)-4-(3,4-dihydroisoquinolin-2(1H)-yl)-3-hydroxypiperidine-1-carbonyl)-5-fluoropyridin-2-yl)amino)piperidine-1-carboxylate] |
